Measurements from patent US6867179B1, “Methods of inducing hair growth and coloration” (Trustees of Boston University, priority 1994, dated 2005).
Entries after “also recorded” stand apart in the source; their conditions may differ.

Assays:
melanocytes = assay: Apoptosis (propidium iodide-positive nuclei) in UV-irradiated melanocytes; format: cell-based, human; settings: UV 10 mJ/cm^2, 50 ng/ml NGF, 24 hours after irradiation; diluent about 30%
Protocol: To determine if melanocyte apoptosis is mediated by p75 NGF-R, cultures were treated as above, and then incubated in the presence of a blocking anti-human p75 NGF-R monoclonal antibody believed to act as a pseudo-ligand for the p75 NGF-R. (Anti-human p75 NGF-R monoclonal antibody courtesy of Moses V. Chao, Cornell University Medical Center, New York, N.Y.; Ross, et al., Proc. Natl. Acad. Sci. 81:6681 (1984)).
Melanocytes were cultured on 8 chamber tissue culture slides (Nunc Inc., Naperville, Ill.) and were UV irradiated with 10 mJ/cm^2 as above. Four microM of propidium iodide (PI) was added to melanocyte cultures 24 hours after irradiation, for 5 minutes at […]. Cultures were washed with PBS and nuclei were analyzed using a Leitz confocal laser microscope (Leica, Deerfield, Ill.).
Melanocytes were sham or UV irradiated with 10 mJ/cm^2 and 25 mJ/cm^2. Twenty-four hours after irradiation, […] of propidium iodide was added to cultures as above and cells were viewed with fluorescent phase contrast Nikon microscope. The number of fragmented or homogeneously stained nuclei versus nonstained nuclei was determined in several representative fields and expressed as a percent of total cells. A minimum of 130 cells were counted for each condition.
Melanocytes were irradiated with 10 mJ/cm^2 or were sham irradiated as in Example 1 and then provided 50 ng/ml NGF or diluent alone. […]

MM4 cells [1] = assay: MM4 cell yields after UV or sham irradiation with growth factor supplementation; format: cell-based, human; settings: UV 10 mJ/cm^2, 50 ng/ml NGF, 4 experiments
Protocol: Melanocytes or MM4 cells were plated in 60 mm diameter tissue culture dishes. Melanocytes were maintained in Medium 199 supplemented with 7% fetal bovine serum (FBS), 10 ng/ml epidermal growth factor (Collaborative Research), […] (Sigma), […] (Collaborative Research), […] (Sigma), 1.4×10^−6 M hydrocortisone (Calbiochem), […] (Calbiochem), and 10 ng/ml basic fibroblast growth factor (Collaborative Research) (basal melanocyte medium). MM4 cells were maintained in 55.3% DME, 27.6% L15, 15% FBS, 1% nonessential amino acids (GIBCO BRL), 2 mM glutamine and 10 µg/ml insulin. After 24 hours, medium was replaced by phosphate buffered saline (PBS) and cells were irradiated using a 1 KW xenon arc solar simulator (XMN 1000-21, Optical Radiation Corp., Azuza, Calif.) with 5, 10, or 25 mJ/cm^2 UV through the petri dish plastic cover. Irradiance was adjusted to 4×10^−5 UV cm^−2 and metered with a research radiometer (model IL1700A, International Light, Newburyport, Mass.) fitted with a UVB probe at 285 Å 5 nm. After UV irradiation, cells were maintained in their respective media without FBS for 2 days (MM4 cells) or 3 days (melanocytes) and processed as indicated. Sham irradiated control cultures were handled identically but laced under a dark cloth adjacent to the UV beam.
FIGS. 2B and 2D show MM4 cell yields 24-72 hours after a single UV irradiation of 10 mJ/cm^2. FIGS. 2C and 2e show MM4 cell yields 24-72 hours after sham irradiation. Cells in FIGS. 2B and 2C were supplemented with 50 ng/ml NGF or diluent alone. Cells in FIGS. 2D and 2E were supplemented with 50 ng/ml bFGF or diluent alone.
(§1) Melanocytes or MM4 cells were plated as described in Example 1. After irradiation, melanocytes were maintained in basal melanocyte medium lacking FBS and hydrocortisone, with 50 ng/ml NGF or diluent alone (melanocyte medium). MM4 cells were maintained in DME supplemented with 50 ng/ml NGF or diluent alone.

human melanocytes = format: cell-based
Bcl-2 protein = Bcl-2 protein expression in MM4 cells (FACScan, Western blot); format: cell-based, human
Protocol: To determine if NGF induces Bcl-2 protein, MM4 cells were UV-irradiated with 10 mJ/cm^2 or sham irradiated and then supplemented with NGF or diluent alone as explained in Example 3. Twenty-four hours after irradiation, cells were washed with PBS and then detached with 0.5 mM EDTA and washed again with PBS. 10^6 cells were incubated with […] mouse anti human Bcl-2 monoclonal antibody (DAKO Co., Carpinteria, Calif.) or with the same concentration of normal mouse IgG (Cappel, Organon Teknika Co., West Chester, Pa., USA) in PBS with 0.3% Saponin (Sigma, St, Louis, Mo.) for 2 hours at 4%C. After three washes with PBS, cells were incubated with fluorescein-conjugated goat anti-mouse IgG (1 hour at 4%C) (Cappel), washed four times in PBS, fixed with 0.1% fresh formaldehyde, and washed three times in PBS. Fluorescence intensity was determined using FACScan flow cytometer (Becton-Dickinson, San Jose, Calif.).
(−) mouse IgG control; (_) diluent alone; ( . . . ) 50 ng/ml NGF.
MM4 cells were extracted in RIPA buffer (50 mM Tris-HCl [pH 8.0], 0.15 M NaCl, 0.5% sodium deoxycholate, 1% Triton X-100) in the presence of […] aprotinin and 75 µg/ml phenylmethylsulfonyl fluoride, sonicated for 1-3 seconds and centrifuged. […] of protein per lane were separated on 12% SDS/PAGE and blotted onto nitrocellulose paper (overnight, 40V). […]

p75 NGF-R = assay: Northern blot of p75 NGF-R mRNA in NGF-supplemented melanocytes; format: cell-based, human
MM4 cells [2] = assay: DNA fragmentation (DNA ladder) after UV irradiation, FIG. 3A; format: cell-based, human; settings: 50 ng/ml NGF, 24 hours after UV irradiation
Protocol: Cells in 100 mm tissue culture dishes were washed with cold PBS and disrupted in lysis buffer pH8 (10 mM tris, 150 mM NaCl, 0.1 mM EDTA, 1% SDS, 200 µg/ml proteinase K). After 15 hour incubation at […], samples were extracted twice with phenol plus chloroform (1:1, V/V) and precipitated overnight with ethanol (2.5×volume) and 3 M sodium acetate (1/10×volume). The DNA was then digested with DNAse free ribonuclease ([…]) for one hour at […], separated on 1% agarose gel and stained with ethidium bromide. The size marker is 100 bp DNA ladder (STD) (Gibco/BRL, Gaithersburg, Md.).
as §1
The standard (STD) is 100 bp DNA ladder (Gibco/BRL). (See FIG. 3A).

NGF: nerve growth factor, neurotrophin ligand of p75 NGF-R and trk
Nuclei showing fragmentation (propidium iodide positive) (melanocytes): 12%
Cell yields of MM4 cells versus diluent alone (MM4 cells [1]): significantly higher
Cell yields of melanocytes versus diluent alone (human melanocytes; UV 10 mJ/cm^2, 50 ng/ml NGF, 7 experiments): significantly higher
Cell yields, NGF-treated versus control cultures (human melanocytes; determined daily for 19 days): up to 6.5 fold
Thymidine labeling index, NGF-treated versus control cultures (human melanocytes; determined daily for 19 days): ≤ 10 fold
Appearance of cultures after UV irradiation (human melanocytes; melanocytes and MM4 cells, 50 ng/ml NGF): appeared healthy
Bcl-2 level (Bcl-2 protein; UV 10 mJ/cm^2 followed by 50 ng/ml NGF, 24 hours): substantially higher; also recorded: Bcl-2 induction
Bcl-2 level (Bcl-2 protein; sham irradiated, 50 ng/ml NGF): only low levels of Bcl-2 protein
p75 NGF-R mRNA transcript levels versus diluent controls (p75 NGF-R): several-fold higher
DNA fragmentation after UV irradiation (MM4 cells [2]): not fragmented; also recorded: far less fragmentation
